Measured values taken from US7576094B2, “Spiro derivatives as lipoxygenase inhibitors” (Eli Lilly and Company, priority 2004, dated 2009).

Columns and labels:
[1] = target: T1, porcine leukocyte 12/15-Lipoxygenase (Sus scrofa, UniProt P16469); test: 12/15-Lipoxygenase Enzyme Assay; type: biochemical; conditions: 70 μM arachidonic acid, 10 minute incubation at room temperature, FOX reagent, absorbance at 620 nm; read-out: inhibition of 12/15-Lipoxygenase with an IC50
T1 sequence (P16469 1-663): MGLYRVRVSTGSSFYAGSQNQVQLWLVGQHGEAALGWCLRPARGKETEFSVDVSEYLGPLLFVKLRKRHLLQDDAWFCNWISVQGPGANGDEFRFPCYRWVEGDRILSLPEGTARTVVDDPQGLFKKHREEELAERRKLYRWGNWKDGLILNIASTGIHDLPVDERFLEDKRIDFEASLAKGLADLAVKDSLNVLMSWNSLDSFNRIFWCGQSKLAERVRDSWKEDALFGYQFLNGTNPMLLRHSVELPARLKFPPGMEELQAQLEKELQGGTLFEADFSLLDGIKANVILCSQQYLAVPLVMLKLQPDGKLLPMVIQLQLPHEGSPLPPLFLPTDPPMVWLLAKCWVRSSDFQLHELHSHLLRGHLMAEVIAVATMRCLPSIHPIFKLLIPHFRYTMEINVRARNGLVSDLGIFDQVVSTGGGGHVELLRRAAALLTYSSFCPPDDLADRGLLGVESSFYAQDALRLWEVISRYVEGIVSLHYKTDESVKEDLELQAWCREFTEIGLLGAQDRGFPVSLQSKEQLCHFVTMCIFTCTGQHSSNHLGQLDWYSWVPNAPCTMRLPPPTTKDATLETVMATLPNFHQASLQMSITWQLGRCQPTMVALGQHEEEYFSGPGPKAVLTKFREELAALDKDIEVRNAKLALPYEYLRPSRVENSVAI
Excerpt: This procedure was used for measuring the enzymatic activity of porcine leukocyte 12/15-Lipoxygenase using a […] method based on the ferric oxidation of xylenol orange.
• 96 well flat bottom microfilter plates (VWR, Catalog # 62402-933 9295) • Lipoxygenase screening assay buffer (Cayman, Catalog # 760710) • Porcine leukocyte 12/15-Lipoxygenase (Cayman, Catalog # 60300) • Arachidonic Acid (Sigma, Catalog # A3555) • Xylenol orange tetrasodium salt (Aldrich, Catalog # 227854) • Iron (II) sulfate heptahydrate (Sigma, Catalog # F7002) • Sulfuric acid (95-98%) [18M] • Methanol Procedure
Porcine Leukocyte 12/15-Lipoxygenase (Cayman Cat # 60300) was used in this assay. Test compound and/or vehicle was added to 1.3 μL 12/15-Lipoxygenase in 50 mM Tris-HCl buffer, pH 7.4. The reaction was initiated by addition of 70 μM arachidonic acid in Tris-HCl buffer, pH 7.4, and terminated after a 10 minute incubation at room temperature by addition of FOX reagent (25 mM sulfuric acid, 100 μM xylenol orange, 100 μM iron (II) sulfate, methanol:water 9:1). The yellow color of acidified xylenol orange was converted to a blue color by the lipid hydroperoxide-mediated oxidation of Fe^2+ ions and the interaction of the resulting Fe^3+ ions with the dye. The complex was allowed to form during a 1 hour incubation at room temperature with shaking. Absorbance of the Fe^3+ complex was then measured at […] using a spectrophotometer.
Negative controls contained enzyme during the incubation step but substrate was not added until after the FOX reagent. Compounds are screened at 5 concentrations in triplicate starting at 10 μM

[2] = system: LTB4 production in human whole blood; test: Inhibition of LTB4 Production in Blood; type: cell-based; conditions: 1 h, 20 μM A23187, 60 minutes at 37° C., LTB4 in plasma by ELISA, read-out: protection against LTB4 at an EC50
Method in brief: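 Citrated human whole blood preincubated 15 min at 37 °C with compound (top final 30 μM, 1:3 dilutions, quadruplicate), then stimulated with 20 μM A23187 for 60 min at 37 °C. Plasma LTB4 quantified by ELISA; IC50 from percent inhibition versus vehicle.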

[3] = target: T2, human recombinant 5-Lipoxygenase (Homo sapiens, UniProt P09917); test: 5-Lipoxygenase Enzyme Assay; type: biochemical; conditions: 70 μM arachidonic acid, 10 minute incubation at room temperature, FOX reagent, absorbance at 620 nm; read-out: inhibition of 5-Lipoxygenase with an IC50
T2 sequence (P09917 1-674): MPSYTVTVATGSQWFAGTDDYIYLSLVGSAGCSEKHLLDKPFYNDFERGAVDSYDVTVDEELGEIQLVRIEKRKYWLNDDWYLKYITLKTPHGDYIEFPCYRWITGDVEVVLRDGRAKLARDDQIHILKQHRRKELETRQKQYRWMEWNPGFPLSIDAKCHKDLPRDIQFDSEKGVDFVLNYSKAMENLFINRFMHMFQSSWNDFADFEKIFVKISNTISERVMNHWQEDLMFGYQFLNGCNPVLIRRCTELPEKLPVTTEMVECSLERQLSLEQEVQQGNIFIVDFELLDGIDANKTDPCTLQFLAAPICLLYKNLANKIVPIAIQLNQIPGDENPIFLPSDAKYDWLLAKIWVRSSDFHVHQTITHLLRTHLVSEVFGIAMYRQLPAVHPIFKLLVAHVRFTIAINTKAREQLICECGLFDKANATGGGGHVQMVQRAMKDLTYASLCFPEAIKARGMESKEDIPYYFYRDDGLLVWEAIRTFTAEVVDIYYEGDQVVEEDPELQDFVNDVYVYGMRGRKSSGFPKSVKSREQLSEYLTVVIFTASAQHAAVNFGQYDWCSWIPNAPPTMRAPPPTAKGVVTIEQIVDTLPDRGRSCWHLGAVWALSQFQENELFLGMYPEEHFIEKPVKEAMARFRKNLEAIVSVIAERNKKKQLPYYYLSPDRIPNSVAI
Method in brief: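 Recombinant human 5-LOX in 50 mM Tris-HCl pH 7.4 was preincubated with compound, then 70 μM arachidonic acid was added for 10 min at room temperature. Hydroperoxide was read by FOX reagent (ferric xylenol orange, 1 h complex formation) as absorbance at 620 nm. Five concentrations in triplicate were tested, starting at 10 μM.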

[4] = system: release of the leukotriene LTB4 from a neutrophil cell line (MPRO cell line); test: LTB4-Cell Assay; type: cell-based; conditions: Mus musculus, 1 h, read-out: inhibition of LTB4 with an EC50
Method in brief: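 Mouse promyelocytic cells differentiated to neutrophils with 10 μM all-trans retinoic acid for 72 h, then stimulated with 1 μM A23187 plus compound for 1 h at 37° C. Supernatant LTB4 quantified by competitive EIA; 5 concentrations in quadruplicate from 10 μM top.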

| SMILES | IC50 [1] [µM] | EC50 [2] [µM] | IC50 [3] [µM] | EC50 [4] [µM] |
| --- | --- | --- | --- | --- |
| Cc1c(O)cc2c(c1C)N(c1ccc(O)cn1)CC1(CCC1)C2 [1′-(5-hydroxypyridin-2-yl)-7′,8′-dimethyl-2′,4′-dihydro-1′H-spiro[cyclobutane-1,3′-quinolin]-6′-ol] | < 5 | < 10 | < 0.3 | – |
| Cc1c(C)c2c(c(C)c1O)C(OC1CCCC1)CC1(CCC1)O2 (centres unmarked) [4-(cyclopentyloxy)-5,7,8-trimethyl-3,4-dihydrospiro[chromene-2,1′-cyclobutane]-6-diol] | < 5 | – | < 0.3 | < 5 |
| Cc1c(C)c2c(c(C)c1O)C(SC(C)C)CC1(CCC1)O2 (centres unmarked) [4-(isopropylthio)-5,7,8-trimethyl-3,4-dihydrospiro[chromene-2,1′-cyclobutan]-6-ol] | < 5 | – | < 0.3 | < 5 |
| CCOC1CC2(CCC2)Oc2c(C)c(C)c(O)c(C)c21 (centres unmarked) [4-ethoxy-5,7,8-trimethyl-3,4-dihydrospiro[chromene-2,1′-cyclobutan]-6-ol] | < 5 | – | < 0.3 | < 5 |
| Cc1c(C)c2c(c(C)c1O)CCC1(CCC1)O2 [5,7,8-trimethyl-3,4-dihydrospiro[chromene-2,1′-cyclobutan]-6-ol] | < 5 | – | < 0.3 | < 5 |
| Cc1c(C)c2c(c(C)c1O)CC1(CCC1)CO2 [5,7,8-trimethylspiro[chroman-3,1′-cyclobutan]-6-ol] | < 5 | < 10 | < 0.3 | – |
| CCc1cc2c(c(CC)c1O)C=CC1(CCC1)O2 [5,7-diethylspiro[chromene-2,1′-cyclobutan]-6-ol] | < 5 | < 10 | < 0.3 | – |
| CC(C)c1cc2c(c(C(C)C)c1O)C=CC1(CCC1)O2 [5,7-diisopropylspiro[chromene-2,1′-cyclobutan]-6-ol] | < 5 | < 10 | < 0.3 | – |
| Cc1cc2c(c(C)c1O)C=C(c1cnco1)C1(CCC1)O2 [5,7-dimethyl-3-(1,3-oxazol-5-yl)spiro[chromene-2,1′-cyclobutan]-6-ol] | < 5 | < 10 | < 0.3 | – |
| Cc1cc2c(c(C)c1O)CC(c1cnco1)C1(CCC1)O2 (centres unmarked) [5,7-dimethyl-3-(oxazol-5-yl)spiro[chroman-2,1′-cyclobutan]-6-ol] | < 5 | < 10 | < 0.3 | – |
| Cc1c(O)c(CCC(C)C)c(C)c2c1CCC1(CCC1)O2 [5,8-dimethyl-7-(3-methylbutyl)-3,4-dihydrospiro[chromene-2,1′-cyclobutan]-6-ol] | < 5 | – | < 0.3 | < 5 |
| Cc1c(C)c2c(c(C)c1O)CCC1(CCC1)S2 [5′,7′,8′-trimethyl-3′,4′-dihydrospiro[cyclobutane-1,2′-thiochromen]-6′-ol] | < 5 | – | < 0.3 | < 5 |
| Cc1c(C)c2c(c(C)c1O)C=CC1(CCC1)S2 [5′,7′,8′-trimethylspiro[cyclobutane-1,2′-thiochromen]-6′-ol] | < 5 | – | < 0.3 | < 5 |
| Cc1c(C)c2c(c(C)c1O)C(OC(=O)Nc1ccccc1)CCS2 (centres unmarked) [6-hydroxy-5,7,8-trimethylthiochroman-4-yl phenylcarbamate] | < 5 | – | < 0.3 | < 5 |
| CO/N=C/C1=Cc2c(cc(C)c(O)c2C)OC12CCC2 [6-hydroxy-5,7-dimethylspiro[chromene-2,1′-cyclobutane]-3-carbaldehyde O-methyloxime] | < 5 | < 10 | – | < 5 |
| Cc1c(O)c(Cl)c(C)c2c1CCC1(CCC1)O2 [7-chloro-5,8-dimethyl-3,4-dihydrospiro[chromene-2,1′-cyclobutan]-6-ol] | < 5 | – | < 0.3 | < 5 |
| Cc1c(O)c(C(C)C)cc2c1CCC1(CCC1)O2 [7-isopropyl-5-methyl-3,4-dihydrospiro[chromene-2,1′-cyclobutan]-6-ol] | < 5 | < 10 | < 0.3 | – |
| Cc1c(O)c(C(C)C)cc2c1C=CC1(CCC1)O2 [7-isopropyl-5-methylspiro[chromene-2,1′-cyclobutan]-6-ol] | < 5 | < 10 | < 0.3 | – |
| Cc1ccc(N2CC3(CCC3)Cc3cc(O)c(C)c(C)c32)cc1 [7′,8′-dimethyl-1′-p-tolyl-2′,4′-dihydro-1′H-spiro[cyclobutane-1,3′-quinolin]-6′-ol] | < 5 | – | < 0.3 | – |
| Cc1c(O)c(C)c2c(c1Cl)OC1(CCC1)CC2 [8-chloro-5,7-dimethyl-3,4-dihydrospiro[chromene-2,1′-cyclobutan]-6-ol] | < 5 | – | < 0.3 | < 5 |
| Cc1c(O)cc(Cl)c2c1CCC1(CCC1)O2 [8-chloro-5-methyl-3,4-dihydrospiro[chromene-2,1′-cyclobutan]-6-ol] | < 5 | – | < 0.3 | < 5 |
| CCCc1ccc(S(=O)(=O)NCCCN2CC3(CCC3)Cc3cc(O)c(C)c(C)c32)cc1 [N-(3-(6′-hydroxy-7′,8′-dimethyl-2′,4′-dihydro-1′H-spiro[cyclobutane-1,3′-quinoline]-1′-yl)propyl)-4-propylbenzenesulfonamide] | < 5 | < 10 | < 0.3 | – |
| COC(=O)CSCC1Cc2c(C)c(O)c(C)c(C)c2OC12CCC2 (centres unmarked) [methyl {[(6-hydroxy-5,7,8-trimethyl-3,4-dihydrospiro[chromene-2,1′-cyclobutan]-3-yl)methyl]thio}acetate] | < 5 | – | < 0.3 | < 5 |
